Assay results reported in ChEMBL document CHEMBL5291721, “A preclinical secondary pharmacology resource illuminates target-adverse drug reaction associations of marketed drugs” (Nat Commun, 2023).

Columns and labels:
[1] = molecular target: T1, Estrogen receptor (Homo sapiens, UniProt P03372)
T1 sequence (P03372 whole entry): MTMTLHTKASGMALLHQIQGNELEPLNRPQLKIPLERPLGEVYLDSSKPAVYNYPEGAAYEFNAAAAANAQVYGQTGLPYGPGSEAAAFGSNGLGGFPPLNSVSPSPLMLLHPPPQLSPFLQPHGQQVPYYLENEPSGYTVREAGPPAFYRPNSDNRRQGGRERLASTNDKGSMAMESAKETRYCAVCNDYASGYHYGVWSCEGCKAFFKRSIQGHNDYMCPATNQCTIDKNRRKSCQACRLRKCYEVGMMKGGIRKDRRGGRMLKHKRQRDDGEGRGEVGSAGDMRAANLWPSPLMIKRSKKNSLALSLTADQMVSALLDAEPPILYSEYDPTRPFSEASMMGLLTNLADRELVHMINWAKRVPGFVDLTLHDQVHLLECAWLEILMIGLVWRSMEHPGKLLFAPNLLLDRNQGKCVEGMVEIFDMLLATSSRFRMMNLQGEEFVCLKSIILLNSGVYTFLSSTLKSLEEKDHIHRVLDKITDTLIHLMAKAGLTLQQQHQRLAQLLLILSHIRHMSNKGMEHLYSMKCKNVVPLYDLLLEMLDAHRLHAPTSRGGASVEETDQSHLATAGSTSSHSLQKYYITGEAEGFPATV

[2] = molecular target: T2, Alpha-1A adrenergic receptor (Homo sapiens, UniProt P35348)
T2 sequence (P35348 whole entry): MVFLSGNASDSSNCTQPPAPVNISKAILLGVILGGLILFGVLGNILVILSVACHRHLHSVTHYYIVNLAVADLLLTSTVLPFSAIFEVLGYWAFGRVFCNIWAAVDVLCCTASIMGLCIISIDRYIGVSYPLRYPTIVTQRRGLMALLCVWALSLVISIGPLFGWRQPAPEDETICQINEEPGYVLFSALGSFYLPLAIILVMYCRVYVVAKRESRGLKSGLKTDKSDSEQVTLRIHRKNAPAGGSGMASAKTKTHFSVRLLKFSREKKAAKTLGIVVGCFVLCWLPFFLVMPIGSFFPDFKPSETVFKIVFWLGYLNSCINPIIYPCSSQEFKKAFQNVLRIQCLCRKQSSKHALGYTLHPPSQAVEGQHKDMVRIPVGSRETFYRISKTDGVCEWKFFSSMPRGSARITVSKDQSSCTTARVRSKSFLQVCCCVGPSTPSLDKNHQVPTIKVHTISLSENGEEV

[3] = molecular target: T3, Androgen receptor (Rattus norvegicus, UniProt P15207)
T3 sequence (P15207 whole entry): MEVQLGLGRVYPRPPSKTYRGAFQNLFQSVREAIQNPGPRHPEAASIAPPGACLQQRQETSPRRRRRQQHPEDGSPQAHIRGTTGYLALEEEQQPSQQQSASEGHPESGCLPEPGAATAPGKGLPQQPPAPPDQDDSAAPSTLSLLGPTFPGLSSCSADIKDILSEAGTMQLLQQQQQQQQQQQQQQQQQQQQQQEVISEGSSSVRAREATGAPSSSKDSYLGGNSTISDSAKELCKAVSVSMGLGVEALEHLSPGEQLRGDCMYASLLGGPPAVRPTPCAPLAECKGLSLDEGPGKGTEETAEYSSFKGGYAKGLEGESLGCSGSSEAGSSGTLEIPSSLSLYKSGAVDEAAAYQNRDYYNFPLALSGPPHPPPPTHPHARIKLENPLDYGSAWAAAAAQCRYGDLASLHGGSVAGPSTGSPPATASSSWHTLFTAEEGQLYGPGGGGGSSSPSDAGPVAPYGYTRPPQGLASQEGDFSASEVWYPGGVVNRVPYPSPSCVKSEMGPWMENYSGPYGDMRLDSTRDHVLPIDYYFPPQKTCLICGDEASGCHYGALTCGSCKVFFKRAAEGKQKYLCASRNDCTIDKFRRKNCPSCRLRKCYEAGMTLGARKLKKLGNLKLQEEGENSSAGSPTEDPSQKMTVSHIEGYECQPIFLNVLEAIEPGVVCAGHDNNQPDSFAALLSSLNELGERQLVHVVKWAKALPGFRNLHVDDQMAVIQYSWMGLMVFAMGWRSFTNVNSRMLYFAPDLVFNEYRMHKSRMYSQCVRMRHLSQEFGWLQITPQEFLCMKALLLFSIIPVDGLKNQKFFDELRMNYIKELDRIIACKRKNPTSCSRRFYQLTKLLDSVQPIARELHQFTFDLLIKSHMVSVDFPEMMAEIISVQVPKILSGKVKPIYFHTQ

[4] = molecular target: T4, 5-hydroxytryptamine receptor 1A (Homo sapiens, UniProt P08908)
T4 sequence (P08908 whole entry): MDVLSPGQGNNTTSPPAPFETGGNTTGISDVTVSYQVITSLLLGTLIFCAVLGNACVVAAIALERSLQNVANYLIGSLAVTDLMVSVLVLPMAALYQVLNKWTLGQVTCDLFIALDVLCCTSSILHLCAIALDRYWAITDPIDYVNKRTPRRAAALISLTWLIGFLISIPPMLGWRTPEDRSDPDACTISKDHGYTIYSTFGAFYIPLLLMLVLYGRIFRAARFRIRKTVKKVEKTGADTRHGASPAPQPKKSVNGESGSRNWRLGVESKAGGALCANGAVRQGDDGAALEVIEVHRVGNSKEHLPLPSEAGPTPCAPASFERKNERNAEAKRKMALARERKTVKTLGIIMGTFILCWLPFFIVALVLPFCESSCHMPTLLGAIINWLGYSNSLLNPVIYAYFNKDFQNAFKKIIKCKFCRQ

[5] = molecular target: Histamine H2 receptor (Homo sapiens, UniProt P25021)
[6] = molecular target: Voltage-dependent N-type calcium channel subunit alpha-1B (Rattus norvegicus, UniProt Q02294); assay type: functional
[7] = molecular target: T5, Alpha-2A adrenergic receptor (Homo sapiens, UniProt P08913)
T5 sequence (P08913 whole entry): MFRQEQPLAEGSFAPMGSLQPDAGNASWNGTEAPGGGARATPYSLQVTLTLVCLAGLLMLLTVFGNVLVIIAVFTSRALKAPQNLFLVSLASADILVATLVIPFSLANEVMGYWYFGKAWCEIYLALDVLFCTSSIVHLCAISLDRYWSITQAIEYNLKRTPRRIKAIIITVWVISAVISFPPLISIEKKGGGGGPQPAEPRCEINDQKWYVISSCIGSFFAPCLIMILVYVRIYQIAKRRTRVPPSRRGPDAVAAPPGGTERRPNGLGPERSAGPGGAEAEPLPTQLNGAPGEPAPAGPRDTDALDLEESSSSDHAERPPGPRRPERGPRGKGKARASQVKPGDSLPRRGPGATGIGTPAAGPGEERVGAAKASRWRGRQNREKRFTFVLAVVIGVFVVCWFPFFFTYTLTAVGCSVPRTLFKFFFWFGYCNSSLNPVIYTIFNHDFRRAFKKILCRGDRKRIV
Note: assay procedure not described here.

Chain of Voltage-dependent N-type calcium channel subunit alpha-1B (Q02294 whole entry): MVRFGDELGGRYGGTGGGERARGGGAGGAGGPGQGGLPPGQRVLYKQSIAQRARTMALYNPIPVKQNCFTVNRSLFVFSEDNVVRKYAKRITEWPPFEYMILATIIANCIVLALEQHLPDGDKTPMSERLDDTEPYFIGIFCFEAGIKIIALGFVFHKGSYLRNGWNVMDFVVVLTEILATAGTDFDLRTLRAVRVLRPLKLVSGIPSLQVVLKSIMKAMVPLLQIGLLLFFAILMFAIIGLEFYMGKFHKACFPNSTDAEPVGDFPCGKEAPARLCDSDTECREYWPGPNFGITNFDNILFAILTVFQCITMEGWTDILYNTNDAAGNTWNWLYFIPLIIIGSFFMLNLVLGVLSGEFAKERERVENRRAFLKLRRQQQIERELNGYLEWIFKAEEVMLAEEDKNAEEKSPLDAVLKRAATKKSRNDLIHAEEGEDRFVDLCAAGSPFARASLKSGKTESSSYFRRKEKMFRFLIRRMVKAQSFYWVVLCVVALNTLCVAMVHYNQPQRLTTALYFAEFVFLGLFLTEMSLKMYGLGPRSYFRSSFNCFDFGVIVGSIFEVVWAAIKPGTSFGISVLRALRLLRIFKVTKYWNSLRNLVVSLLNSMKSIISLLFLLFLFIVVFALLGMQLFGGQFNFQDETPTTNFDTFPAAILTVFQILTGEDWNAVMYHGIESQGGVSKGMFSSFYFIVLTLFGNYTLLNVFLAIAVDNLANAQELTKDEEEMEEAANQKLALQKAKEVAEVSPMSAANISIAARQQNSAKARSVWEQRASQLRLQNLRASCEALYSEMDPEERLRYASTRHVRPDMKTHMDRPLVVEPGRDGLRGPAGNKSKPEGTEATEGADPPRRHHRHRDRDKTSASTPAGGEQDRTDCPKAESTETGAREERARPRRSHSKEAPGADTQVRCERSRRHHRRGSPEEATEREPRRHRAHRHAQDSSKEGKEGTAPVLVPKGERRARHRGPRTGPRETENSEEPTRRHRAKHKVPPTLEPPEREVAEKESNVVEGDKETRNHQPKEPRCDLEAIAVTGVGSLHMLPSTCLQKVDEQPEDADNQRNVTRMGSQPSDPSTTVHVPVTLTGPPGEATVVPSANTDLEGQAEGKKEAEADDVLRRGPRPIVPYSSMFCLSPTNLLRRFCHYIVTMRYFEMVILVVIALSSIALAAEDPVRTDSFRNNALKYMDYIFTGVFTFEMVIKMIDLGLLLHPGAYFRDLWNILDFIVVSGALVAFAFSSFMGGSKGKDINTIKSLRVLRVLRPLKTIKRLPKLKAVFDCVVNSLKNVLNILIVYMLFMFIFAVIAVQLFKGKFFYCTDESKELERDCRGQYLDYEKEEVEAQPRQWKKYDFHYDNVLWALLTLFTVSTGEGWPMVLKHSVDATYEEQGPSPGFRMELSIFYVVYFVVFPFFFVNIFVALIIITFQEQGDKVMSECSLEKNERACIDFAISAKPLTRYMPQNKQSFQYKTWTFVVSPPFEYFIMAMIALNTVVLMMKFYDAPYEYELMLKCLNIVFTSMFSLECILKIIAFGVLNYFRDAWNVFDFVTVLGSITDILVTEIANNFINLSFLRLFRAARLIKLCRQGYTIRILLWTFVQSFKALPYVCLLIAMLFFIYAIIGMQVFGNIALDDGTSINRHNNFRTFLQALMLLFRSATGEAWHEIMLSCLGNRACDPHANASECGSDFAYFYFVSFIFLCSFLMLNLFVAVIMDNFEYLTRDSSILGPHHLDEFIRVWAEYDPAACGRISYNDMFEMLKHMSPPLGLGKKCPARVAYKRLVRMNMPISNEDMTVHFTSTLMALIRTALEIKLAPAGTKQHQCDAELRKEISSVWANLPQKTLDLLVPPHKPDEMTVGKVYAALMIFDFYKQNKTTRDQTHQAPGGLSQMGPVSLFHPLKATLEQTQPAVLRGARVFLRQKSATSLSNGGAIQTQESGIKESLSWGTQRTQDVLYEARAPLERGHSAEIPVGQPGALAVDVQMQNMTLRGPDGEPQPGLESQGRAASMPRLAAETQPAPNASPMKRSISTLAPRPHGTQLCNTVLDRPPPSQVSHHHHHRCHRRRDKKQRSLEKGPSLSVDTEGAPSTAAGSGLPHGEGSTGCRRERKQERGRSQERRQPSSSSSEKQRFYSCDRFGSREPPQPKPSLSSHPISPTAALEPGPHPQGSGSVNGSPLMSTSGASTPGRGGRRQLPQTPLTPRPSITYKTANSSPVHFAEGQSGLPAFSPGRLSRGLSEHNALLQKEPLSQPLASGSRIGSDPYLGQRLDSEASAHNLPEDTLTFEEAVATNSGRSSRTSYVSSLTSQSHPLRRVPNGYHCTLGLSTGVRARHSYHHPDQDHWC
Chain of Histamine H2 receptor (P25021 whole entry): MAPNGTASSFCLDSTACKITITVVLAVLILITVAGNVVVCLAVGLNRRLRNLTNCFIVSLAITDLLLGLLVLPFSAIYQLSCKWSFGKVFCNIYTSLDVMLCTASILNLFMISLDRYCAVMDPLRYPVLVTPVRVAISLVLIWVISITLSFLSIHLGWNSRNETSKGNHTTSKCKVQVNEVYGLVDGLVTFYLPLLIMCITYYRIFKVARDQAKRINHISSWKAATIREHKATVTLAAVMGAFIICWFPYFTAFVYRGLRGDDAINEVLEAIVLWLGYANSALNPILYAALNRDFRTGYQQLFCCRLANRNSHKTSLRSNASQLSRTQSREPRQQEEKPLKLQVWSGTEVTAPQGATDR

SMILES	AC50 [1]	AC50 [2]	AC50 [3]	AC50 [4]	AC50 [5]	AC50 [6]	AC50 [7]
O=C1C(O)=C([C@H]2CC[C@H](c3ccc(Cl)cc3)CC2)C(=O)c2ccccc21 [ATOVAQUONE]	> 30 µM	> 30 µM					
COc1ccc(CCNCC(O)COc2cccc(C)c2)cc1OC (stereo unspecified) [BEVANTOLOL]	> 10 µM	1.2 µM	> 10 µM	1.56 µM			
CC(C)(C)NCC(O)COc1cccc2c1CCC(=O)N2 (stereo unspecified) [CARTEOLOL]		> 10 µM	> 10 µM				
Clc1ccccc1C(c1ccccc1)(c1ccccc1)n1ccnc1 [CLOTRIMAZOLE]		> 10 µM		> 10 µM	17.4 µM	> 10 µM	
NC(=O)OCC(COC(N)=O)c1ccccc1 [FELBAMATE]	> 10 µM	> 10 µM	> 10 µM				
Fc1ccc(C(c2ccccc2)(c2ccccc2F)n2ccnc2)cc1 (stereo unspecified) [FLUTRIMAZOLE]	> 30 µM						
Cc1c(OCC(F)(F)F)ccnc1C[S+]([O-])c1nc2ccccc2[nH]1 (stereo unspecified) [LANSOPRAZOLE]		> 10 µM		> 10 µM	8.52 µM	> 10 µM	> 10 µM
NC(=O)CN1CC(O)CC1=O (stereo unspecified) [OXIRACETAM]		> 30 µM					
C[C@H]1COc2c(C3(N)CC3)c(F)cc3c(=O)c(C(=O)O)cn1c23 [PAZUFLOXACIN]		> 10 µM					
CC/C(=C(\c1ccccc1)c1ccc(OCCN(C)C)cc1)c1ccccc1 [TAMOXIFEN]		> 10 µM		> 10 µM	1.75 µM	> 10 µM	> 10 µM
COc1cccc(C2(O)CCCCC2CN(C)C)c1 (stereo unspecified) [TRAMADOL]	> 30 µM	> 10 µM	> 30 µM		> 10 µM	> 10 µM	> 10 µM
Cc1nnc2n1-c1ccc(Cl)cc1C(c1ccccc1Cl)=NC2 [TRIAZOLAM]		> 10 µM		> 10 µM			
